Test results as given in patent publication US20060069132A1, “Azolecarboxamide herbicides” (priority 2004, published 2006).

How the values were obtained:
[1] = system: barnyardgrass; experiment: Test B pre-/postemergence herbicide test; format: in vivo, Echinochloa crus-galli; conditions: for Barnyardgrass plant response rating (0 to 100 scale): 0 = no effect, 100 = complete control; for Barnyardgrass plant response rating (0 to 100 scale) / Plant response rating, Barnyardgrass: preemergence; for Plant response rating, Barnyardgrass: visual rating 0-100, 0 no effect, 100 complete control; for Barnyardgrass plant response rating: postemergence, visual rating, scale 0 (no effect) to 100 (complete control)
Outline: (§1)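 Response was scored visually 13 to 15 days after treatment against untreated greenhouse controls, 0 meaning no effect and 100 complete control. Formulations (solvent mixture plus surfactant) went onto soil after planting, onto foliage of 1- to 4-leaf plants, and onto 2-leaf plants in a flooded paddy set including rice and barnyardgrass.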

[2] = system: Surinam grass; experiment: Test B pre-/postemergence herbicide test; format: in vivo, Urochloa decumbens; conditions: for Surinam Grass plant response rating (0 to 100 scale): 0 = no effect, 100 = complete control; for Surinam Grass plant response rating (0 to 100 scale) / Plant response rating, Surinam Grass: preemergence; for Plant response rating, Surinam Grass: visual rating 0-100, 0 no effect, 100 complete control; for Surinam Grass plant response rating: postemergence, visual rating, scale 0 (no effect) to 100 (complete control)
Outline: (§2)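 Formulation: non-phytotoxic solvent mix with surfactant. Timing: preemergence on seed and postemergence on 2–18 cm plants, applied concurrently. Readout after 13–15 d greenhouse: visual 0–100 control rating against controls.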

[3] = system: cocklebur; experiment: Test B pre-/postemergence herbicide test; format: in vivo, Xanthium strumarium; conditions: for Cocklebur plant response rating (0 to 100 scale): 0 = no effect, 100 = complete control; for Cocklebur plant response rating (0 to 100 scale) / Plant response rating, Cocklebur: preemergence; for Plant response rating, Cocklebur: visual rating 0-100, 0 no effect, 100 complete control; for Cocklebur plant response rating: postemergence, visual rating, scale 0 (no effect) to 100 (complete control)
Outline: as §1

[4] = system: corn; experiment: Test B pre-/postemergence herbicide test; format: in vivo, Zea mays; conditions: for Corn plant response rating (0 to 100 scale): 0 = no effect, 100 = complete control; for Corn plant response rating (0 to 100 scale) / Plant response rating, Corn: preemergence; for Plant response rating, Corn: visual rating 0-100, 0 no effect, 100 complete control; for Corn plant response rating: postemergence, visual rating, scale 0 (no effect) to 100 (complete control)
Outline: as §2

[5] = system: large crabgrass; experiment: Test B pre-/postemergence herbicide test; format: in vivo, Digitaria sanguinalis; conditions: for Crabgrass, Large plant response rating (0 to 100 scale): 0 = no effect, 100 = complete control; for Crabgrass, Large plant response rating (0 to 100 scale) / Plant response rating, Crabgrass, Large: preemergence; for Plant response rating, Crabgrass, Large: visual rating 0-100, 0 no effect, 100 complete control; for Crabgrass, Large plant response rating: postemergence, visual rating, scale 0 (no effect) to 100 (complete control)
Outline: as §2

[6] = system: giant foxtail; experiment: Test B pre-/postemergence herbicide test; format: in vivo, Setaria faberi; conditions: for Foxtail, Giant plant response rating (0 to 100 scale): 0 = no effect, 100 = complete control; for Foxtail, Giant plant response rating (0 to 100 scale) / Plant response rating, Foxtail, Giant: preemergence; for Plant response rating, Foxtail, Giant: visual rating 0-100, 0 no effect, 100 complete control; for Foxtail, Giant plant response rating: postemergence, visual rating, scale 0 (no effect) to 100 (complete control)
Outline: as §2

[7] = system: lambsquarters; experiment: Test B pre-/postemergence herbicide test; format: in vivo, Chenopodium album; conditions: for Lambsquarters plant response rating (0 to 100 scale): 0 = no effect, 100 = complete control; for Lambsquarters plant response rating (0 to 100 scale) / Plant response rating, Lambsquarters: preemergence; for Plant response rating, Lambsquarters: visual rating 0-100, 0 no effect, 100 complete control; for Lambsquarters plant response rating: postemergence, visual rating, scale 0 (no effect) to 100 (complete control)
Outline: as §2

[8] = system: morningglory; experiment: Test B pre-/postemergence herbicide test; format: in vivo, Ipomoea coccinea; conditions: for Morningglory plant response rating (0 to 100 scale): 0 = no effect, 100 = complete control; for Morningglory plant response rating (0 to 100 scale) / Plant response rating, Morningglory: preemergence; for Plant response rating, Morningglory: visual rating 0-100, 0 no effect, 100 complete control; for Morningglory plant response rating: postemergence, visual rating, scale 0 (no effect) to 100 (complete control)
Outline: as §1

[9] = system: pigweed; experiment: Test B pre-/postemergence herbicide test; format: in vivo, Amaranthus retroflexus; conditions: for Pigweed plant response rating (0 to 100 scale): 0 = no effect, 100 = complete control; for Pigweed plant response rating (0 to 100 scale) / Plant response rating, Pigweed: preemergence; for Plant response rating, Pigweed: visual rating 0-100, 0 no effect, 100 complete control; for Pigweed plant response rating: postemergence, visual rating, scale 0 (no effect) to 100 (complete control)
Outline: as §2

[10] = system: velvetleaf; experiment: Test B pre-/postemergence herbicide test; format: in vivo, Abutilon theophrasti; conditions: for Velvetleaf plant response rating (0 to 100 scale): 0 = no effect, 100 = complete control; for Velvetleaf plant response rating (0 to 100 scale) / Plant response rating, Velvetleaf: preemergence; for Plant response rating, Velvetleaf: visual rating 0-100, 0 no effect, 100 complete control; for Velvetleaf plant response rating: postemergence, visual rating, scale 0 (no effect) to 100 (complete control)
Outline: as §2

[11] = system: blackgrass; experiment: Test B postemergence herbicide test; format: in vivo, Alopecurus myosuroides; conditions: postemergence, visual rating, scale 0 (no effect) to 100 (complete control)
Outline: (§3)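 Visual control ratings, 0–100 versus untreated controls, taken after 13 to 15 days in the greenhouse. Blackgrass received a postemergence spray at the 1- to 4-leaf stage (2–18 cm); ducksalad, umbrella sedge and barnyardgrass were flooded-paddy treated at 2 leaves.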

[12] = system: wheat; experiment: Test B postemergence herbicide test; format: in vivo, Triticum aestivum; design: key to Wheat plant response rating: 0 = no effect, 100 = complete control; conditions: postemergence, visual rating, scale 0 (no effect) to 100 (complete control)
Outline: (§4)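 Plants grow to 1- to 4-leaf stage (2–18 cm) for postemergence spraying, or to 2-leaf stage for the paddy test. Formulated compound is applied. Greenhouse holding lasts 13–15 days. Response is scored visually relative to controls, 0 no effect to 100 complete control; a dash means no result.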

[13] = system: wild oat; experiment: Test B postemergence herbicide test; format: in vivo, Avena fatua; conditions: postemergence, visual rating, scale 0 (no effect) to 100 (complete control)
Outline: as §4

[14] = system: small flower umbrella sedge; experiment: Test B flooded paddy test; format: in vivo, Cyperus difformis; conditions: 1000 g ai/ha, visual rating, scale 0 to 100 (0 no effect, 100 complete control), 13 to 15 days
Outline: as §3

Compound: CCc1nc(C(C)(C)C)sc1C(=O)Nc1cccc(C(=O)N(CC)CC)c1 [Compound 205]
- Barnyardgrass plant response rating (0 to 100 scale) ([1]; 125 g ai/ha): 50
- Plant response rating, Barnyardgrass ([1]; 500 g ai/ha): 90
- Barnyardgrass plant response rating ([1]; 125 g ai/ha): 10
- Barnyardgrass plant response rating ([1]; 500 g ai/ha): 20
- Surinam Grass plant response rating (0 to 100 scale) ([2]; 125 g ai/ha): 20
- Plant response rating, Surinam Grass ([2]; 500 g ai/ha): 80
- Surinam Grass plant response rating ([2]; 125 g ai/ha): 20
- Surinam Grass plant response rating ([2]; 500 g ai/ha): 20
- Cocklebur plant response rating (0 to 100 scale) ([3]; 125 g ai/ha): 10
- Plant response rating, Cocklebur ([3]; 500 g ai/ha): 20
- Cocklebur plant response rating ([3]; 125 g ai/ha): 40
- Cocklebur plant response rating ([3]; 500 g ai/ha): 80
- Corn plant response rating (0 to 100 scale) ([4]; 125 g ai/ha): 10
- Plant response rating, Corn ([4]; 500 g ai/ha): 40
- Corn plant response rating ([4]; 125 g ai/ha): 20
- Corn plant response rating ([4]; 500 g ai/ha): 20
- Crabgrass, Large plant response rating (0 to 100 scale) ([5]; 125 g ai/ha): 60
- Plant response rating, Crabgrass, Large ([5]; 500 g ai/ha): 90
- Crabgrass, Large plant response rating ([5]; 125 g ai/ha): 10
- Crabgrass, Large plant response rating ([5]; 500 g ai/ha): 20
- Foxtail, Giant plant response rating (0 to 100 scale) ([6]; 125 g ai/ha): 50
- Plant response rating, Foxtail, Giant ([6]; 500 g ai/ha): 100
- Foxtail, Giant plant response rating ([6]; 125 g ai/ha): 20
- Foxtail, Giant plant response rating ([6]; 500 g ai/ha): 30
- Lambsquarters plant response rating (0 to 100 scale) ([7]; 125 g ai/ha): 80
- Plant response rating, Lambsquarters ([7]; 500 g ai/ha): 100
- Lambsquarters plant response rating ([7]; 125 g ai/ha): 60
- Lambsquarters plant response rating ([7]; 500 g ai/ha): 70
- Morningglory plant response rating (0 to 100 scale) ([8]; 125 g ai/ha): 0
- Plant response rating, Morningglory ([8]; 500 g ai/ha): 30
- Morningglory plant response rating ([8]; 125 g ai/ha): 30
- Morningglory plant response rating ([8]; 500 g ai/ha): 50
- Pigweed plant response rating (0 to 100 scale) ([9]; 125 g ai/ha): 100
- Plant response rating, Pigweed ([9]; 500 g ai/ha): 100
- Pigweed plant response rating ([9]; 125 g ai/ha): 40
- Pigweed plant response rating ([9]; 500 g ai/ha): 50
- Velvetleaf plant response rating (0 to 100 scale) ([10]; 125 g ai/ha): 30
- Plant response rating, Velvetleaf ([10]; 500 g ai/ha): 80
- Velvetleaf plant response rating ([10]; 125 g ai/ha): 20
- Velvetleaf plant response rating ([10]; 500 g ai/ha): 40
- Blackgrass plant response rating ([11]; 125 g ai/ha): 0
- Blackgrass plant response rating ([11]; 500 g ai/ha): 20
- Wheat plant response rating ([12]; 125 g ai/ha): 10
- Wheat plant response rating ([12]; 500 g ai/ha): 20
- Oat, Wild plant response rating ([13]; 125 g ai/ha): 20
- Oat, Wild plant response rating ([13]; 500 g ai/ha): 30
- Sedge, Umbrella plant response rating [14]: 60

Compound: CCc1nc(C(C)(C)C)sc1C(=O)Nc1cccc(C(=O)NCCF)c1 [Compound 209]
- Barnyardgrass plant response rating (0 to 100 scale) ([1]; 125 g ai/ha): 50
- Plant response rating, Barnyardgrass ([1]; 500 g ai/ha): 90
- Barnyardgrass plant response rating ([1]; 125 g ai/ha): 10
- Barnyardgrass plant response rating ([1]; 500 g ai/ha): 20
- Surinam Grass plant response rating (0 to 100 scale) ([2]; 125 g ai/ha): 20
- Plant response rating, Surinam Grass ([2]; 500 g ai/ha): 50
- Surinam Grass plant response rating ([2]; 125 g ai/ha): 20
- Surinam Grass plant response rating ([2]; 500 g ai/ha): 20
- Cocklebur plant response rating (0 to 100 scale) ([3]; 125 g ai/ha): 10
- Plant response rating, Cocklebur ([3]; 500 g ai/ha): 30
- Cocklebur plant response rating ([3]; 125 g ai/ha): 30
- Cocklebur plant response rating ([3]; 500 g ai/ha): 40
- Corn plant response rating (0 to 100 scale) ([4]; 125 g ai/ha): 0
- Plant response rating, Corn ([4]; 500 g ai/ha): 50
- Corn plant response rating ([4]; 125 g ai/ha): 20
- Corn plant response rating ([4]; 500 g ai/ha): 30
- Crabgrass, Large plant response rating (0 to 100 scale) ([5]; 125 g ai/ha): 40
- Plant response rating, Crabgrass, Large ([5]; 500 g ai/ha): 60
- Crabgrass, Large plant response rating ([5]; 125 g ai/ha): 20
- Crabgrass, Large plant response rating ([5]; 500 g ai/ha): 20
- Foxtail, Giant plant response rating (0 to 100 scale) ([6]; 125 g ai/ha): 30
- Plant response rating, Foxtail, Giant ([6]; 500 g ai/ha): 60
- Foxtail, Giant plant response rating ([6]; 125 g ai/ha): 20
- Foxtail, Giant plant response rating ([6]; 500 g ai/ha): 30
- Lambsquarters plant response rating (0 to 100 scale) ([7]; 125 g ai/ha): 60
- Plant response rating, Lambsquarters ([7]; 500 g ai/ha): 100
- Lambsquarters plant response rating ([7]; 125 g ai/ha): 40
- Lambsquarters plant response rating ([7]; 500 g ai/ha): 40
- Morningglory plant response rating (0 to 100 scale) ([8]; 125 g ai/ha): 10
- Plant response rating, Morningglory ([8]; 500 g ai/ha): 20
- Morningglory plant response rating ([8]; 125 g ai/ha): 20
- Morningglory plant response rating ([8]; 500 g ai/ha): 20
- Pigweed plant response rating (0 to 100 scale) ([9]; 125 g ai/ha): 70
- Plant response rating, Pigweed ([9]; 500 g ai/ha): 100
- Pigweed plant response rating ([9]; 125 g ai/ha): 30
- Pigweed plant response rating ([9]; 500 g ai/ha): 40
- Velvetleaf plant response rating (0 to 100 scale) ([10]; 125 g ai/ha): 10
- Plant response rating, Velvetleaf ([10]; 500 g ai/ha): 50
- Velvetleaf plant response rating ([10]; 125 g ai/ha): 20
- Velvetleaf plant response rating ([10]; 500 g ai/ha): 20
- Blackgrass plant response rating ([11]; 125 g ai/ha): 0
- Blackgrass plant response rating ([11]; 500 g ai/ha): 20
- Wheat plant response rating ([12]; 125 g ai/ha): 10
- Wheat plant response rating ([12]; 500 g ai/ha): 20
- Oat, Wild plant response rating ([13]; 125 g ai/ha): 20
- Oat, Wild plant response rating ([13]; 500 g ai/ha): 20
- Sedge, Umbrella plant response rating [14]: 90
